Numbers after ± are expanded uncertainties.
Test: mn = molality of the nth substance listed, in mol/kg
Settings: 101.33 kPa, Liquid

CC(C)C[C@H](NC(=O)CN)C(=O)O [glycyl-L-leucine] + O
mass density [kg/m3]
Settings | m1 = 0.01944 | m1 = 0.02958 | m1 = 0.0395 | m1 = 0.04928 | m1 = 0.057 | m1 = 0.07128 | m1 = 0.09125 | m1 = 0.1001
298.15 K | 997.991 ± 0.14 | 998.487 ± 0.14 | 998.954 ± 0.14 | 999.428 ± 0.14 | 999.792 ± 0.13 | 1000.49 ± 0.14 | 1001.44 ± 0.14 | 1001.85 ± 0.14
303.15 K | 996.492 ± 0.14 | 996.981 ± 0.14 | 997.455 ± 0.14 | 997.926 ± 0.14 | 998.294 ± 0.14 | 998.981 ± 0.14 | 999.94 ± 0.13 | 1000.35 ± 0.13
308.15 K | 994.971 ± 0.14 | 995.453 ± 0.14 | 995.927 ± 0.14 | 996.398 ± 0.14 | 996.773 ± 0.14 | 997.443 ± 0.14 | 998.415 ± 0.14 | 998.822 ± 0.14
313.15 K | 993.308 ± 0.14 | 993.787 ± 0.14 | 994.248 ± 0.14 | 994.705 ± 0.14 | 995.068 ± 0.14 | 995.712 ± 0.14 | 996.655 ± 0.14 | 997.07 ± 0.14

CC(C)[C@H](NC(=O)CN)C(=O)O [glycyl-L-valine] + O
mass density [kg/m3]
Settings | m1 = 0.02257 | m1 = 0.03982 | m1 = 0.06066 | m1 = 0.07858 | m1 = 0.1017 | m1 = 0.1513 | m1 = 0.1791 | m1 = 0.2026
298.15 K | 998.221 ± 0.14 | 999.108 ± 0.14 | 1000.17 ± 0.13 | 1001.09 ± 0.14 | 1002.26 ± 0.14 | 1004.75 ± 0.14 | 1006.13 ± 0.14 | 1007.28 ± 0.15
303.15 K | 996.723 ± 0.14 | 997.606 ± 0.14 | 998.679 ± 0.14 | 999.59 ± 0.13 | 1000.76 ± 0.14 | 1003.24 ± 0.14 | 1004.65 ± 0.14 | 1005.79 ± 0.14
308.15 K | 995.192 ± 0.14 | 996.067 ± 0.14 | 997.129 ± 0.14 | 998.03 ± 0.14 | 999.181 ± 0.14 | 1001.63 ± 0.14 | 1003.01 ± 0.14 | 1004.11 ± 0.14
313.15 K | 993.535 ± 0.14 | 994.395 ± 0.14 | 995.435 ± 0.14 | 996.317 ± 0.14 | 997.462 ± 0.14 | 999.879 ± 0.14 | 1001.22 ± 0.14 | 1002.29 ± 0.14

O [water] + NCC(=O)NCC(=O)O
m2 = 0
Settings | mass density [kg/m3]
303.15 K | 995.55 ± 0.14
313.15 K | 992.392 ± 0.14

NCC(=O)NCC(=O)O [glycylglycine] + O
mass density [kg/m3]
Settings | m1 = 0.0294 | m1 = 0.04517 | m1 = 0.06076 | m1 = 0.07901 | m1 = 0.1051 | m1 = 0.1496 | m1 = 0.2003 | m1 = 0.257 | m1 = 0.3022
298.15 K | 998.688 ± 0.14 | 999.547 ± 0.14 | 1000.42 ± 0.14 | 1001.42 ± 0.14 | 1002.86 ± 0.14 | 1005.27 ± 0.14 | 1007.99 ± 0.15 | 1011.04 ± 0.15 | 1013.4 ± 0.16
303.15 K | 997.189 ± 0.14 | 998.051 ± 0.14 | 998.909 ± 0.14 | 999.898 ± 0.13 | 1001.33 ± 0.14 | 1003.76 ± 0.14 | 1006.46 ± 0.14 | 1009.51 ± 0.15 | 1011.87 ± 0.15
308.15 K | 995.661 ± 0.14 | 996.52 ± 0.14 | 997.375 ± 0.14 | 998.349 ± 0.14 | 999.766 ± 0.14 | 1002.15 ± 0.14 | 1004.89 ± 0.14 | 1007.83 ± 0.15 | 1010.28 ± 0.15
313.15 K | 994.003 ± 0.14 | 994.856 ± 0.14 | 995.681 ± 0.14 | 996.677 ± 0.14 | 998.065 ± 0.14 | 1000.44 ± 0.14 | 1003.12 ± 0.14 | 1006.06 ± 0.14 | 1008.41 ± 0.15

From the NIST ThermoML archive (doi:10.1021/je100068y)
